# Experiments:
# [1] = target: Tyrosine-protein kinase JAK2 (Homo sapiens, UniProt O60674)
# Description: Inhibition of GST-tagged JAK2 kinase
# BaF3 [2] = assay: cells; conditions: Mus musculus, BaF3, 72 h
# Description: Antiproliferative activity against mouse BAF3 cells expressing TEL-JAK2 kinase after 72 hrs by alamar blue assay
# [3] = target: T1, Tyrosine-protein kinase JAK3 (Homo sapiens, UniProt P52333)
# T1 sequence (P52333 whole entry): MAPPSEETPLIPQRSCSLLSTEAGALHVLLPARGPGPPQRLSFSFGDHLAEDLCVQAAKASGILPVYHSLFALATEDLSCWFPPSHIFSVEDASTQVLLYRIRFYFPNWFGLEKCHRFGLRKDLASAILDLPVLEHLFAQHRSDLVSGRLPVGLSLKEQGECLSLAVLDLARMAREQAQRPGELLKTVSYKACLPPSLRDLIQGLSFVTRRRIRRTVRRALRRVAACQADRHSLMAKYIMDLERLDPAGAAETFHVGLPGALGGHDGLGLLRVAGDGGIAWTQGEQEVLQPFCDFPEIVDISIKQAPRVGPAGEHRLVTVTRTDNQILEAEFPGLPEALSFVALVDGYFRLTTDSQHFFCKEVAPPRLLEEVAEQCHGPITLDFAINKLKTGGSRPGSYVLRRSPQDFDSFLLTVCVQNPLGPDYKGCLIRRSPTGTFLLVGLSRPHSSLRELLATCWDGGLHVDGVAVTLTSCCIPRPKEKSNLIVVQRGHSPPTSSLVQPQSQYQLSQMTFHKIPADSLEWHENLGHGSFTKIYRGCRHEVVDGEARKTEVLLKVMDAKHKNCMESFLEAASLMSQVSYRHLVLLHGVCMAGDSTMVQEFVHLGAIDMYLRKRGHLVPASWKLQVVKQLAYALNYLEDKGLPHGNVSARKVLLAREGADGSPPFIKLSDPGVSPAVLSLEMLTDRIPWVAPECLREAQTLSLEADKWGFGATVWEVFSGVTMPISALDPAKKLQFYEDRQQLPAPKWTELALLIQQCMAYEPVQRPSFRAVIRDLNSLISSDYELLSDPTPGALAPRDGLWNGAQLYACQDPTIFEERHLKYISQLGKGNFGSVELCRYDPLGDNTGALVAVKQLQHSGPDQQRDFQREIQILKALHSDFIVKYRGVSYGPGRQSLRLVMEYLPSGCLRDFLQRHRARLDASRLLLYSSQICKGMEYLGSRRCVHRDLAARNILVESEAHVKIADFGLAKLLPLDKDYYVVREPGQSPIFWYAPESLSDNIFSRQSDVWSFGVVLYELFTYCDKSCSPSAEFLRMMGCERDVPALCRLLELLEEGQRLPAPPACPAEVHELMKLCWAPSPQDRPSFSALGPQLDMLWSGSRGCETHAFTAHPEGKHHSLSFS
# Description: Inhibition of GST-tagged JAK3 kinase
# cells = conditions: Mus musculus, CTLL-2, 72 h
# Description: Antiproliferative activity against IL-2-stimulated mouse CTLL-2 cells expressing JAK1/JAK3 after 72 hrs by alamar blue assay
# BaF3 [4] = assay: cells; conditions: Mus musculus, BaF3, 72 h; remark: listed apart in the source
# Description: Antiproliferative activity against mouse BAF3 cells expressing TEL-JAK3 kinase after 72 hrs by alamar blue assay
# [5] = Apparent permeability from basolateral to apical side in human Caco-2 cells; assay type: ADME, cell-based
# in vitro [6] = conditions: human, Caco-2
# Description: Apparent permeability from apical to basolateral side in human Caco-2 cells
# in vitro [7] = conditions: human, Caco-2; remark: listed apart in the source
# Description: Ratio of permeability from apical to basolateral side over basolateral to apical side in human Caco-2 cells
# Chain of Tyrosine-protein kinase JAK2 (O60674 whole entry): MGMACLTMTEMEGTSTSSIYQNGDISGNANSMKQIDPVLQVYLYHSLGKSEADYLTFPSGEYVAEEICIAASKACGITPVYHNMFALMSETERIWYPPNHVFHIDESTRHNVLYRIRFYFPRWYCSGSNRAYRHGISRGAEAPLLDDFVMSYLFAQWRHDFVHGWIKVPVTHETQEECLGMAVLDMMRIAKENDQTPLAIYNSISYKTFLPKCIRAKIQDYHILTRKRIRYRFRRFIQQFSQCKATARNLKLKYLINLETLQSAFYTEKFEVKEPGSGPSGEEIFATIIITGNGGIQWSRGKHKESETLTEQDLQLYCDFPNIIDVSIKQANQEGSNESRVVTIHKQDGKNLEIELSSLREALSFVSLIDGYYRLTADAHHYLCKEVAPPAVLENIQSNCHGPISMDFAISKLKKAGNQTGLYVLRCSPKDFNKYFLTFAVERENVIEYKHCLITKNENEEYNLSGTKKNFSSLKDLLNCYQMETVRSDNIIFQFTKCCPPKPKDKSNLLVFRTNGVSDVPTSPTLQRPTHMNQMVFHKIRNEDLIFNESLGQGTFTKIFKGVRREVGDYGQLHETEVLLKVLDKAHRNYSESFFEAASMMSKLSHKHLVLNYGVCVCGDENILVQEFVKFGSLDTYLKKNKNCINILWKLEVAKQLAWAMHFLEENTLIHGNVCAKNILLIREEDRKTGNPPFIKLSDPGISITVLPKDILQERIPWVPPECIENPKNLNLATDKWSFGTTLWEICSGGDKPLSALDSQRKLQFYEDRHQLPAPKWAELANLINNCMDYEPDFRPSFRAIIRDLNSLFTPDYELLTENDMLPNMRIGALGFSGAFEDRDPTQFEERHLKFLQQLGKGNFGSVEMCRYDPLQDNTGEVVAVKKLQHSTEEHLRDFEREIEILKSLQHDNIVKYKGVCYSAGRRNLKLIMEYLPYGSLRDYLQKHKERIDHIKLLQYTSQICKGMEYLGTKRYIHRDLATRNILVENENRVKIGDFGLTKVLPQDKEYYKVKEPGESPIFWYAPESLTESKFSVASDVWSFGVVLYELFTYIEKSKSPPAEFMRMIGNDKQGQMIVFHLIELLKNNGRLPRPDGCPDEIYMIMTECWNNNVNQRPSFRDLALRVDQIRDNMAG
SMILES,IC50 [1] [nM],IC50 (BaF3 [2]) [nM],IC50 [3] [nM],IC50 (cells) [nM],IC50 (BaF3 [4]) [nM],Papp B→A [5] [×10⁻⁶ cm/s],Papp A→B (in vitro [6]) [×10⁻⁶ cm/s],efflux ratio (in vitro [7])
Cc1cc(-c2ccnc(Nc3ccc(N4CCOCC4)cc3)n2)cc(C)c1O,88,3520,–,–,–,–,–,–
CC(=O)Nc1ccc(-c2ccnc(Nc3ccc(N4CCOCC4)cc3)n2)cc1,67,3110,–,–,–,–,–,–
N#CCC(=O)Nc1cccc(-c2ccnc(Nc3ccc(N4CCOCC4)cc3)n2)c1,303,10300,1760,18900,> 20000,–,–,–
N#CCNC(=O)c1ccc(-c2ccnc(Nc3ccc(N4CCSCC4)cc3)n2)cc1,69,2200,–,1510,6240,–,–,–
N#CCNC(=O)c1ccc(-c2ccnc(Nc3ccc(CN4CCS(=O)(=O)CC4)cc3)n2)cc1,52,2040,–,7900,9980,–,–,–
Cc1cnc(Nc2ccc(N3CCOCC3)cc2)nc1-c1ccc(C(=O)NCC#N)cc1,8,433,85,240,5960,–,–,–
N#CCNC(=O)c1cccc(-c2ccnc(Nc3ccc(N4CCOCC4)cc3)n2)c1,545,> 20000,> 5000,> 20000,> 20000,–,–,–
N#CCNCc1cccc(-c2ccnc(Nc3ccc(N4CCOCC4)cc3)n2)c1,132,9820,> 1000,8030,> 20000,–,–,–
N#CCC(=O)Nc1ccc(-c2ccnc(Nc3ccc(N4CCOCC4)cc3)n2)cc1,–,720,–,915,4200,–,–,–
N#CCNC(=O)c1ccc(-c2ccnc(Nc3ccc(N4CCOCC4)c(F)c3)n2)cc1,116,1140,274,1260,3280,–,–,–
N#CCNC(=O)c1ccc(-c2ccnc(Nc3cccc(N4CCOCC4)c3)n2)cc1,–,2560,1880,3770,7450,–,–,–
COc1cc(-c2ccnc(Nc3ccc(N4CCOCC4)cc3)n2)ccc1O,3,380,62,< 160,2550,–,–,–
CS(=O)(=O)Nc1ccc(-c2ccnc(Nc3cccc(CN4CCCC4)c3)n2)cc1,6,234,110,569,240,–,–,–
CS(=O)(=O)Nc1ccc(-c2ccnc(Nc3ccc(CN4CCCCC4)cc3)n2)cc1,11,580,538,735,730,–,–,–
CS(=O)(=O)Nc1ccc(-c2ccnc(Nc3cccc(CN4CCOCC4)c3)n2)cc1,8,812,930,2660,1730,–,–,–
Cc1cc(-c2ccnc(Nc3ccc(N4CCOCC4)cc3)n2)ccc1C(=O)NCC#N,65,2630,> 1000,2040,7570,–,–,–
COc1cc(-c2ccnc(Nc3ccc(N4CCOCC4)cc3)n2)ccc1C(=O)NCC#N,30,205,9,245,275,–,–,–
CN(CC#N)C(=O)c1ccc(-c2ccnc(Nc3ccc(N4CCOCC4)cc3)n2)cc1,298,6340,1420,4170,16900,–,–,–
CC(C)(C#N)NC(=O)c1ccc(-c2ccnc(Nc3ccc(N4CCOCC4)cc3)n2)cc1,549,3720,3910,–,4250,–,–,–
CS(=O)(=O)Nc1ccc(-c2ccnc(Nc3cccc(CN4CCC(O)CC4)c3)n2)cc1,12,771,636,6760,1940,–,–,–
CS(=O)(=O)Nc1ccc(-c2ccnc(Nc3ccc(CN4CCOCC4)cc3)n2)cc1,9,896,> 1000,1670,1940,–,–,–
CCN(CC)CCCOc1ccc(Nc2nccc(-c3ccc(C(=O)NCC#N)cc3)n2)cc1,166,840,362,3680,1100,–,–,–

SMILES,IC50 [1] [nM],IC50 (BaF3 [2]) [nM],IC50 [3] [nM],IC50 (cells) [nM],IC50 (BaF3 [4]) [nM],Papp B→A [5] [×10⁻⁶ cm/s],Papp A→B (in vitro [6]) [×10⁻⁶ cm/s],efflux ratio (in vitro [7])
N#CCNC(=O)c1ccc(-c2ccnc(Nc3ccc(CN4CCOCC4)cc3)n2)cc1,163,2800,1450,5070,9500,–,–,–
CS(=O)(=O)Nc1ccc(-c2ccnc(Nc3ccc(CN4CCC(O)CC4)cc3)n2)cc1,16,892,1620,5610,2200,–,–,–
CN1CCN(Cc2cccc(Nc3nccc(-c4ccc(NS(C)(=O)=O)cc4)n3)c2)CC1,14,941,960,5180,3140,–,–,–
CCN1CCN(Cc2ccc(Nc3nccc(-c4ccc(C(=O)NCC#N)cc4)n3)cc2)CC1,47,423,152,1850,1230,–,–,–
CN1CCN(c2ccc(Nc3nccc(-c4ccc(C(=O)NCC#N)cc4)n3)cc2)CC1,–,525,192,1830,2050,–,–,–
CN1CCN(Cc2ccc(Nc3nccc(-c4ccc(NS(C)(=O)=O)cc4)n3)cc2)CC1,18,1000,> 1000,1550,3430,–,–,–
N#Cc1ccc(-c2ccnc(Nc3ccc(N4CCOCC4)cc3)n2)cc1,–,> 20000,–,–,–,–,–,–
CS(=O)(=O)Nc1ccc(-c2ccnc(Nc3ccc(N4CCOCC4)cc3)n2)cc1,4,396,351,489,3940,–,–,–
CS(=O)(=O)Nc1ccc(-c2ccnc(Nc3ccc(N4CCC(O)CC4)cc3)n2)cc1,6,933,149,1490,6550,–,–,–
COc1cnc(Nc2ccc(N3CCOCC3)cc2)nc1-c1ccc(C(=O)NCC#N)cc1,–,8500,–,6160,> 20000,–,–,–
N#CCNC(=O)c1ccc(-c2ccnc(Nc3ccc(N4CCOCC4)c(C(F)(F)F)c3)n2)cc1,–,1240,2020,3990,1710,–,–,–
Nc1cccc(-c2ccnc(Nc3ccc(N4CCOCC4)cc3)n2)c1,322,8520,–,–,–,–,–,–
O=C(NCc1ccco1)c1ccc(-c2ccnc(Nc3ccc(N4CCOCC4)cc3)n2)cc1,202,5220,–,–,–,–,–,–
c1ccc(-c2ccnc(Nc3ccc(N4CCOCC4)cc3)n2)cc1,467,–,–,–,–,–,–,–
NC(=O)c1ccc(-c2ccnc(Nc3ccc(N4CCOCC4)cc3)n2)cc1,326,5560,–,–,–,–,–,–
COc1cc(-c2ccnc(Nc3ccc(N4CCOCC4)cc3)n2)ccc1N,16,5620,–,–,–,–,–,–
NS(=O)(=O)c1ccc(-c2ccnc(Nc3ccc(N4CCOCC4)cc3)n2)cc1,83,–,–,–,–,–,–,–
Cc1nccn1Cc1ccc(-c2ccnc(Nc3ccc(N4CCOCC4)cc3)n2)cc1,81,3730,–,–,–,–,–,–
c1cc(-c2ccc3[nH]ccc3c2)nc(Nc2ccc(N3CCOCC3)cc2)n1,33,7130,–,–,–,–,–,–
OC[C@@H](O)[C@@H](O)[C@H](O)[C@H](O)CO [MANNITOL],–,–,–,–,–,1.1,0.7,1.5
CC(C)NCC(O)COc1cccc2ccccc12 (stereo not given) [PROPRANOLOL],–,–,–,–,–,48.8,38.7,1.3
